Laboratory results published in the kinase profiling compilation of Christmann-Franck et al. (2016).

How the values were obtained:
Assay in all cases: radiometric filter-binding kinase assay, Kinase HotSpot
Conditions in all cases: compound 0.5 µM; ATP 10 µM
[1] = biological target: DMPK (human) (UniProt Q09013)
[2] = biological target: PASK (human) (UniProt Q96RG2)
[3] = biological target: JAK1 JH1 catalytic (human) (UniProt P23458)
[4] = biological target: CAMK1G (human) (UniProt Q96NX5)
[5] = biological target: WNK2 (human) (UniProt Q9Y3S1)
[6] = biological target: BRSK2 (human) (UniProt Q8IWQ3)
[7] = biological target: CDK5 CDK5R1 p35 (human) (UniProt Q00535+Q15078)
[8] = biological target: MARK2 (human) (UniProt Q7KZI7)
[9] = biological target: CSNK1D (human) (UniProt P48730)
CSNK1D (human), sequence (P48730 whole entry, looked up): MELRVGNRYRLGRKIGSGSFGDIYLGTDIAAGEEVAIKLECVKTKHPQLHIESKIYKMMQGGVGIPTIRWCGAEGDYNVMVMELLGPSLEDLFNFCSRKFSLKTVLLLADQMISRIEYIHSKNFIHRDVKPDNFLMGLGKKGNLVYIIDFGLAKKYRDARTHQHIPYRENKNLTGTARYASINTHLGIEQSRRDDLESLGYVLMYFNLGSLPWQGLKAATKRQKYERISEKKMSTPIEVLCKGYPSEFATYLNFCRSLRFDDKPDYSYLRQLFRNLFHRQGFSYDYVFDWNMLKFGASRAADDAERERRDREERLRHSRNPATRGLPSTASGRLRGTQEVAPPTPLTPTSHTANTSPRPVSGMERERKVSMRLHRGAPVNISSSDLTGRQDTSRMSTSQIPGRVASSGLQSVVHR

[10] = biological target: MERTK (human) (UniProt Q12866)
[11] = biological target: MATK (human) (UniProt P42679)
[12] = biological target: MUSK (human) (UniProt O15146)
[13] = biological target: CSNK1G3 (human) (UniProt Q9Y6M4)
[14] = biological target: SLK (human) (UniProt Q9H2G2)
[15] = biological target: NEK2 (human) (UniProt P51955)
[16] = biological target: FGFR1 (human) (UniProt P11362)
[17] = biological target: TYRO3 (human) (UniProt Q06418)
[18] = biological target: GSK3B (human) (UniProt P49841)
[19] = biological target: PTK2B (human) (UniProt Q14289)
[20] = biological target: NTRK1 (human) (UniProt P04629)
[21] = biological target: EPHB2 (human) (UniProt P29323)
[22] = biological target: DCLK2 (human) (UniProt Q8N568)
[23] = biological target: PLK3 (human) (UniProt Q9H4B4)
PLK3 (human), sequence (Q9H4B4 whole entry, looked up): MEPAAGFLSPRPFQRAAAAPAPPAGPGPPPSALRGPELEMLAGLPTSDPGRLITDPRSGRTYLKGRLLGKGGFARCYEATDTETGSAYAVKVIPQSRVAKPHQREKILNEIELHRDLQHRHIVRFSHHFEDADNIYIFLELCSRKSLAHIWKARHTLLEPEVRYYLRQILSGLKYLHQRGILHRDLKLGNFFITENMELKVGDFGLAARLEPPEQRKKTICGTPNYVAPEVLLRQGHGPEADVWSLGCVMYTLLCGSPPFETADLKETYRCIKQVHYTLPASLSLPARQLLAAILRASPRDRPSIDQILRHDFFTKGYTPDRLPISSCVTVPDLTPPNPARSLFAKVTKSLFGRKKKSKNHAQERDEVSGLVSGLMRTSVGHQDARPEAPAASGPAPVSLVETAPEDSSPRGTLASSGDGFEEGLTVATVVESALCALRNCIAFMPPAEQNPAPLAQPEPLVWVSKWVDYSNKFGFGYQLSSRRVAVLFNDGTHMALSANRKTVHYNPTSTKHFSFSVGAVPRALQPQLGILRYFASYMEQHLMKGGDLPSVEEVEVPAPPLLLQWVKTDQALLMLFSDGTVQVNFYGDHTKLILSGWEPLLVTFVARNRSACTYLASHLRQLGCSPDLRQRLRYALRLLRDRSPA

[24] = biological target: MST1R (human) (UniProt Q04912)
MST1R (human), sequence (Q04912 whole entry, looked up): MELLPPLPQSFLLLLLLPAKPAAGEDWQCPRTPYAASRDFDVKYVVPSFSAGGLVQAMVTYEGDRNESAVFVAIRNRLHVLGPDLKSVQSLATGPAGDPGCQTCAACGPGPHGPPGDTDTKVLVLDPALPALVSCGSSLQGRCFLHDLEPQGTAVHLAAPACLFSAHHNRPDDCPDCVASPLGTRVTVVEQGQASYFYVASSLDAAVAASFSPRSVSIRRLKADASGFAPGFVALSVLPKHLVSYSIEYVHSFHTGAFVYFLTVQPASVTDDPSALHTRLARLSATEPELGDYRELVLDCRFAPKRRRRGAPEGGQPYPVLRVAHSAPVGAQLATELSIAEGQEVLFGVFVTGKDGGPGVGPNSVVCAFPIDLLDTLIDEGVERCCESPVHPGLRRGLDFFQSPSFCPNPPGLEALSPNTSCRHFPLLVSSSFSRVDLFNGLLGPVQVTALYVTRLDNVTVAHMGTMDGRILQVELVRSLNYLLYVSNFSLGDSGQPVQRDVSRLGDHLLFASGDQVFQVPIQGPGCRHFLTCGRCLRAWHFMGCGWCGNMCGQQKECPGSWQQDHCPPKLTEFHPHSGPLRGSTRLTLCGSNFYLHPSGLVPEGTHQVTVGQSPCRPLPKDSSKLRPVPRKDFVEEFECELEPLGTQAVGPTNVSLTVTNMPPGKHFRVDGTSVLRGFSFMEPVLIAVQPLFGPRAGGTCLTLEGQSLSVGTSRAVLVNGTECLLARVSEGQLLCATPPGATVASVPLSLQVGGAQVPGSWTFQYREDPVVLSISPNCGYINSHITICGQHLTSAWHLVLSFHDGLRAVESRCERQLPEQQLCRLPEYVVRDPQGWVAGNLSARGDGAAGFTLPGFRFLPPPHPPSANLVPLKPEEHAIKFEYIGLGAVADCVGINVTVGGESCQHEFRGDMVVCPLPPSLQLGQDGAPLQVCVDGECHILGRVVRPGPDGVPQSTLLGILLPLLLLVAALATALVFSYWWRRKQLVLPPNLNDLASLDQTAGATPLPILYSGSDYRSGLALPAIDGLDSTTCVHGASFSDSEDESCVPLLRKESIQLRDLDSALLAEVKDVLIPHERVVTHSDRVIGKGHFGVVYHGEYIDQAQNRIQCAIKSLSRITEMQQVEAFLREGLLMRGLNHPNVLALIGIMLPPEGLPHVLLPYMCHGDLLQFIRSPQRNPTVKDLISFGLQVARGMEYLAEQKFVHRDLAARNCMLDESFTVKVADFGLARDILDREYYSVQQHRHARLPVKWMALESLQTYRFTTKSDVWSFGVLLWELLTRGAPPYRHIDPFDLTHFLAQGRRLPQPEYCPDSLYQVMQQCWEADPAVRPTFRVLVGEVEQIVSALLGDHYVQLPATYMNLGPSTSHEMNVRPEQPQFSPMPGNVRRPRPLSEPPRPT

[25] = biological target: IRAK1 (human) (UniProt P51617)
[26] = biological target: MAP3K9 (human) (UniProt P80192)
MAP3K9 (human), sequence (P80192 whole entry, looked up): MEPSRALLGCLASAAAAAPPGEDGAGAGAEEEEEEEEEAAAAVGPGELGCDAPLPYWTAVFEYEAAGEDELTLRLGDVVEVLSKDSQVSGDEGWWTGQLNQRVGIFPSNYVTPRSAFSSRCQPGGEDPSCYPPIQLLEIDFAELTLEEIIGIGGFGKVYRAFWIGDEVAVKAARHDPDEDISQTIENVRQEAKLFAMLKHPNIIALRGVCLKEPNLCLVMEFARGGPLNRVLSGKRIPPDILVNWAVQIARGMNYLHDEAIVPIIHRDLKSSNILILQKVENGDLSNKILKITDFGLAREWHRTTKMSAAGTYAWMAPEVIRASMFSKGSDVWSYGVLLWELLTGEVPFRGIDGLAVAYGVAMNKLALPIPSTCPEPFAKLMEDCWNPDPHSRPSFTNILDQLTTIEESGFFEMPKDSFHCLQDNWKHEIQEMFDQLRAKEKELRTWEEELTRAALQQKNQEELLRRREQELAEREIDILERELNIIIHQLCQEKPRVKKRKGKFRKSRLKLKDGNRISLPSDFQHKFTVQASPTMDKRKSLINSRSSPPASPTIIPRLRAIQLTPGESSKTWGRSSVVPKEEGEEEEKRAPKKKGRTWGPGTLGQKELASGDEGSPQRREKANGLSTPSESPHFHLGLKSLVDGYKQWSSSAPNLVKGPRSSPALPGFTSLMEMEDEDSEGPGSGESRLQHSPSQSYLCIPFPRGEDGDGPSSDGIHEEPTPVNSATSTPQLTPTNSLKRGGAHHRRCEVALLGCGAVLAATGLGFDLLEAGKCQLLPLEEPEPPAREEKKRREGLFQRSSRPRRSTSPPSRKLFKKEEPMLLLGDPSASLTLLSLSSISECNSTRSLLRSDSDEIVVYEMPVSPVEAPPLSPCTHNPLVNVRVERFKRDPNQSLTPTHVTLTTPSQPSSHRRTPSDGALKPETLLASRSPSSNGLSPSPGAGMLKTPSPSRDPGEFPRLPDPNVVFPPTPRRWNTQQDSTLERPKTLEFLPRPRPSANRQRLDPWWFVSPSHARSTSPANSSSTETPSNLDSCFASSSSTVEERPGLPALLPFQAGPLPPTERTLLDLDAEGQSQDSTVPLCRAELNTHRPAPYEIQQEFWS

[27] = biological target: STK17A (human) (UniProt Q9UEE5)
[28] = biological target: PLK2 (human) (UniProt Q9NYY3)
[29] = biological target: DYRK1B (human) (UniProt Q9Y463)
[30] = biological target: EPHB4 (human) (UniProt P54760)
[31] = biological target: DYRK4 (human) (UniProt Q9NR20)
[32] = biological target: STK25 (human) (UniProt O00506)
[33] = biological target: GSG2 (human) (UniProt Q8TF76)
[34] = biological target: PHKG2 (human) (UniProt P15735)
[35] = biological target: NEK6 (human) (UniProt Q9HC98)
NEK6 (human), sequence (Q9HC98 whole entry, looked up): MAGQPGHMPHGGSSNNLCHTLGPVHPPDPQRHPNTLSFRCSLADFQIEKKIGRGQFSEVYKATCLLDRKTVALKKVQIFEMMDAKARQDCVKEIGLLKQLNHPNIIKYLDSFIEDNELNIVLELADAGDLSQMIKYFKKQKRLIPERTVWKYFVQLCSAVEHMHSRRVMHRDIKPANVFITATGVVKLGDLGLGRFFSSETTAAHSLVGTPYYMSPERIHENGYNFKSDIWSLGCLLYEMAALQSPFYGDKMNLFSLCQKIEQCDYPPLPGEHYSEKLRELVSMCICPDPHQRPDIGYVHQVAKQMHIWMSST

[36] = biological target: PIM2 (human) (UniProt Q9P1W9)
PIM2 (human), sequence (Q9P1W9 whole entry, looked up): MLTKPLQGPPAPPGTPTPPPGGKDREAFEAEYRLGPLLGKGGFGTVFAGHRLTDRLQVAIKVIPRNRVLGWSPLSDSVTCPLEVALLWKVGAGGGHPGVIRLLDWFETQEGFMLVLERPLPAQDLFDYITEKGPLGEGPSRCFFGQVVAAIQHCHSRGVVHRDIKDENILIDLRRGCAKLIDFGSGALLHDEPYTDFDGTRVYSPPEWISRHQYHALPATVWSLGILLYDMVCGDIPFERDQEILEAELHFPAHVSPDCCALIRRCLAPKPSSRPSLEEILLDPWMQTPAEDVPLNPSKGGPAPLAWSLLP

[37] = biological target: CSNK1E (human) (UniProt P49674)
[38] = biological target: CDK6 CCND1 (human) (UniProt Q00534+P24385)
[39] = biological target: MAPK8 (human) (UniProt P45983)
[40] = biological target: NTRK3 (human) (UniProt Q16288)
NTRK3 (human), sequence (Q16288 whole entry, looked up): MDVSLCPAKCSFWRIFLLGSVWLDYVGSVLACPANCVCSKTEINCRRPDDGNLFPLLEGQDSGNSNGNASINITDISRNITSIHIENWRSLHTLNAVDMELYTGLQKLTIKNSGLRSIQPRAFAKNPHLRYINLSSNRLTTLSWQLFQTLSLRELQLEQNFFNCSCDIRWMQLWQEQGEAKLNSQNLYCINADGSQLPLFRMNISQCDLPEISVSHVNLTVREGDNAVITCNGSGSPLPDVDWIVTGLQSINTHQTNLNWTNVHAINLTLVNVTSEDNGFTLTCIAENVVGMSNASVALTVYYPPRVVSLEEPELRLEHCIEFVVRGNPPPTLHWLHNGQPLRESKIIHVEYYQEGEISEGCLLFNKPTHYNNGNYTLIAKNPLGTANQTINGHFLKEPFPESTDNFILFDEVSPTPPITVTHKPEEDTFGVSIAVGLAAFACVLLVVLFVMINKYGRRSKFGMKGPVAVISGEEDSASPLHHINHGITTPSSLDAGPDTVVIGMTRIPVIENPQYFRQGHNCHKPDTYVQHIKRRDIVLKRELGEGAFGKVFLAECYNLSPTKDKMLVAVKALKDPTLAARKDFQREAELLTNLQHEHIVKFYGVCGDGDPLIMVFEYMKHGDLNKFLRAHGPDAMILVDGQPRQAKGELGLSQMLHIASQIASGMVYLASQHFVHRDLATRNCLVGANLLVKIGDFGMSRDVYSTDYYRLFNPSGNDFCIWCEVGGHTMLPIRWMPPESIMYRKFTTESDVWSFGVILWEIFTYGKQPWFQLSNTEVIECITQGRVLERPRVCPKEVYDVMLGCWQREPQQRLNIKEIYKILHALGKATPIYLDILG

[41] = biological target: NUAK2 (human) (UniProt Q9H093)
[42] = biological target: FGFR2 (human) (UniProt P21802)

For `Cc1cc2ncc(-c3ccccc3)nc2cc1C`, the residual activity [1] was 102%, the residual activity [2] was 82.1% and the residual activity [3] was 103%. It also gave a residual activity [4] of 101%, a residual activity [5] of 98.8% and a residual activity [6] of 102%. The residual activity [7] was 89.1%, the residual activity [8] was 84.5% and the residual activity [9] was 90.7%. The residual activity [10] was 81.4%, the residual activity [11] was 95.4% and the residual activity [12] was 102%. It also gave a residual activity [13] of 99%, a residual activity [14] of 91.9% and a residual activity [15] of 75.7%. The residual activity [16] was 91.9%, the residual activity [17] was 90.9% and the residual activity [18] was 79.5%. The residual activity [19] was 92.1%, the residual activity [20] was 105% and the residual activity [21] was 96.7%. It also gave a residual activity [22] of 100%, a residual activity [23] of 90.1% and a residual activity [24] of 99.4%. It also gave a residual activity [25] of 114%, a residual activity [26] of 92.6% and a residual activity [27] of 80%. The residual activity [28] was 95%, the residual activity [29] was 106% and the residual activity [30] was 95.6%. It also gave a residual activity [31] of 90.3%, a residual activity [32] of 92.5% and a residual activity [33] of 91.5%. The residual activity [34] was 83.9%, the residual activity [35] was 101% and the residual activity [36] was 81%. It also gave a residual activity [37] of 85.5%, a residual activity [38] of 87.1% and a residual activity [39] of 101%. For the same compound, the residual activity [40] was 88.2%, the residual activity [41] was 124% and the residual activity [42] was 108%.

`COc1cc2nccc(Oc3ccc(NC(=S)NC(=O)c4ccccc4C)cc3)c2cc1OC` showed a residual activity [1] of 102%, a residual activity [2] of 93.6% and a residual activity [3] of 96.7%. For the same compound, the residual activity [4] was 99.5%, the residual activity [5] was 94.1% and the residual activity [6] was 93%. It also gave a residual activity [7] of 100%, a residual activity [8] of 82.3% and a residual activity [9] of 212%. For the same compound, the residual activity [10] was 32.3%, the residual activity [11] was 93% and the residual activity [12] was 95.9%. It also gave a residual activity [13] of 93.3%, a residual activity [14] of 6.2% and a residual activity [15] of 89%. The residual activity [16] was 75.7%, the residual activity [17] was 92.2% and the residual activity [18] was 97.7%. For the same compound, the residual activity [19] was 93.4%, the residual activity [20] was 82.5% and the residual activity [21] was 93.5%. For the same compound, the residual activity [22] was 91.5%, the residual activity [23] was 92.1% and the residual activity [24] was 88.8%. It also gave a residual activity [25] of 99.6%, a residual activity [26] of 99.3% and a residual activity [27] of 82.3%. It also gave a residual activity [28] of 99.5%, a residual activity [29] of 110% and a residual activity [30] of 103%. It also gave a residual activity [31] of 92.7%, a residual activity [32] of 103% and a residual activity [33] of 95.9%. For the same compound, the residual activity [34] was 110%, the residual activity [35] was 92.4% and the residual activity [36] was 117%. The residual activity [37] was 95.1%, the residual activity [38] was 87.1% and the residual activity [39] was 81.3%. It also gave a residual activity [40] of 86.1%, a residual activity [41] of 106% and a residual activity [42] of 89%.
